The subject of data set [1] is Rattus norvegicus.
Data set [2] relates to Allium cepa. The settings on record: not reported; seedling emergence.
The test system of data set [3] is Daphnia magna. The conditions noted are these: chronic/long-term; duration: 21 days; reproduction.
The test system of data set [4] is Folsomia candida. The settings on record: chronic/long-term.
Data set [5] deals with Tagia sp. The settings on record: mortality.
For data set [6], the system named is Canidae. The conditions noted are these: oral, Dog Other, organ weight.
In data set [7] the test system is Colinus virginianus.
Data set [8] has as its system Typhlodromus pyri.
Data set [9] concerns Oncorhynchus mykiss.
For data set [10], the system named is Anas platyrhynchos.
In data set [11] the test system is Apis mellifera. The conditions noted are these: acute, mortality.

≈ marks a conversion by molar mass, not a printed value. Some results are limits rather than exact numbers.

Take `CCCCC(C#N)(Cn1cncn1)c1ccc(Cl)cc1` (configuration not stated) [Myclobutanil]: the LD50 is 1600 mg/kg-day in data set [1] (acute, oral, M, mortality); 510 mg/kg-day in data set [7] (acute, oral, mortality); over 39.6 µg/piece in [11] (duration: 72 hours, dermal); over 33.9 µg/piece in [11] (oral, unspecified). In addition, the NOAEL in data set [1] (chronic, duration: 2 years, histopathology: nonneoplastic) amounted to 2.5 mg/kg-day; in [1] (developmental, development), 31 mg/kg-day; in [6] (chronic, duration: 1 years), 3.09 mg/kg-day; in data set [6] (subchronic, duration: 90 days) it was 3.09 mg/kg-day. Moreover, the NOEL in data set [1] (reproduction developmental, reproduction) stood at 16 mg/kg-day. In addition, the LEL in [2] is over 300 g/ha; in data set [8] (acute, duration: 14 days, mortality), 36 g/ha; in data set [8] (not reported, reproduction), 36 g/ha. Further, the NOEC stood at 1 mg/L in data set [3]; 20.5 mg/kg in data set [4]; 10.3 mg/kg in [5] (chronic/long-term, duration: 28 days); 24.2 mg/kg-day in data set [7] (reproduction developmental); 0.2 mg/L in data set [9] (chronic/long-term, duration: 21 days, growth); 31.6 mg/kg-day in [10] (reproductive). Further, the LC50 was 250 mg/kg in data set [5] (acute); over 567 mg/kg-day in data set [7] (acute, oral, diet, mortality); 2 mg/L (≈ 6.93 µM) in data set [9] (acute, duration: 96 hours, mortality); over 1540 mg/kg-day in data set [10] (short-term, oral, feed, mortality).

For orientation: NOAEL means the highest tested level that showed no adverse finding.

The record behind these values is EPA's ToxValDB 9.5 (doi:10.2903/j.efsa.2009.298r).
